Assay results reported in US20260373138A1, “COMPOUNDS WITH ANTIFUNGAL PROPERTIES” (priority 2023, published 2026).

Tested on: A. fumigatus CEA10 reference strain
Test: Fluconazole potentiator screen: MIC by CLSI microbroth dilution with and without fluconazole
Assay type: cell-based, Aspergillus fumigatus
Settings: for MIC: Aspergillus fumigatus, read-out: MIC (ug/mL) (−) Fluc; for MIC / MIC (ug/mL) (+) Fluc: 18 h; for MIC (ug/mL) (+) Fluc: with 32 μg/ml fluconazole, normoxia, GMM, 37 °C; for potency / potentiation of fluconazole (in words): structure-activity statements, fluconazole potentiator screen; for loss in potentiating the fluconazole: analogs of MBX-7591

Row | Structure (SMILES) | MIC | MIC (ug/mL) (+) Fluc | potency / potentiation of fluconazole (in words) | loss in potentiating the fluconazole | increase in potentiation of fluconazole (morpholine series, para-fluorophenyl substitution)
1 | COc1ccc(S(=O)(=O)N2CCC3(CC2)CC(CCOc2ccncc2)CCO3)cc1 (stereo not drawn) [MBX-7953] | 5.58 µg/mL | 1.11 µg/mL | – | – | –
2 | CC(c1cccs1)N1CCC2(CC1)CC(CCOc1ccncc1)CCO2 (stereo not drawn) [MBX-7954] | > 77 µg/mL | >77 µg/mL | – | – | –
3 | c1csc(CN2CCC3(CC2)CC(CCOc2ccncc2)CCO3)c1 (stereo not drawn) [MBX-7955] | > 74 µg/mL | >74 µg/mL | – | – | –
4 | O=S(=O)(C1COC1)N1CCC2(CC1)CC(CCOc1ccncc1)CCO2 (stereo not drawn) [MBX-7956] | > 79 µg/mL | >79 µg/mL | complete loss of activity | – | –
5 | COc1c(F)cccc1S(=O)(=O)N1CCC2(CC1)CC(CCOc1ccncc1)CCO2 (stereo not drawn) [MBX-7958] | > 92 µg/mL | >92 µg/mL | – | – | –
6 | O=S(=O)(c1cncs1)N1CCC2(CC1)CC(CCOc1ccncc1)CCO2 (stereo not drawn) [MBX-7959] | 21.2 µg/mL | 4.20 µg/mL | – | – | –
7 | O=S(=O)(c1cscn1)N1CCC2(CC1)CC(CCOc1ccncc1)CCO2 (stereo not drawn) [MBX-7960] | 42 µg/mL | 10.60 µg/mL | – | – | –
8 | COc1ccccc1S(=O)(=O)N1CCC2(CC1)CC(CCOc1ccncc1)CCO2 (stereo not drawn) [MBX-7961] | > 89 µg/mL | >89 µg/mL | – | – | –
9 | O=C(O)c1cccc(S(=O)(=O)N2CCC3(CC2)CC(CCOc2ccncc2)CCO3)c1 (stereo not drawn) [MBX-7962] | > 92 µg/mL | >92 µg/mL | – | – | –
10 | O=C(c1ccsc1)N1CCC(Cc2ccc(C#Cc3ccncc3)cc2)CC1 [MBX-7963] | > 77 µg/mL | >77 µg/mL | – | – | –
11 | O=C(c1ccsc1)N1CCC(Cc2ccc(-c3ccncc3)cc2)CC1 [MBX-7964] | 2.27 µg/mL | 1.13 µg/mL | maintained potency | – | –
12 | O=C(c1ccsc1)N1CCC(Cc2ccc(OCc3ccncc3)cc2)CC1 [MBX-8024] | 19.6 µg/mL | 19.60 µg/mL | not optimal for potentiation of fluconazole | – | –
13 | O=C(c1ccsc1)N1CCC(Cc2ccc(Oc3ccncc3)cc2)CC1 [MBX-8025] | > 37 µg/mL | >37 µg/mL | not optimal for potentiation of fluconazole | – | –
14 | O=C(c1ccsc1)N1CCC(Cc2ccc(CCc3ccncc3)cc2)CC1 [MBX-8026] | 2.4 µg/mL | 0.80 µg/mL | maintained potency | – | –
15 | N#Cc1ccc(OCc2ccc(CC3CCN(C(=O)c4ccsc4)CC3)cc2)cc1 [MBX-8027] | > 83 µg/mL | >83 µg/mL | – | – | –
16 | O=C(c1ccsc1)N1CCC(Cc2ccc(CCOc3ccncc3)cc2)CC1 [MBX-8028] | 0.4 µg/mL | 0.60 µg/mL | – | – | –
17 | O=C(c1ccsc1)N1CCC(Cc2cccc(COc3ccncc3)c2)CC1 [MBX-8029] | 27 µg/mL | 19.00 µg/mL | – | – | –
18 | O=C(c1ccsc1)N1CCN(Cc2ccc(COc3ccncc3)cc2)CC1 [MBX-8030] | 1.9 µg/mL | 0.50 µg/mL | – | – | –
19 | O=C(c1cccc(F)c1)N1CCC(Cc2ccc(CN3CCOCC3)cc2)CC1 [MBX-8032] | 3.1 µg/mL | 8.80 µg/mL | – | – | –
20 | O=C(c1ccsc1)N1CCC(Cc2ccc(COc3cncnc3)cc2)CC1 [MBX-8033] | 39 µg/mL | 27.00 µg/mL | complete loss of activity | – | –

Row | Structure (SMILES) | MIC | MIC (ug/mL) (+) Fluc | potency / potentiation of fluconazole (in words) | loss in potentiating the fluconazole | increase in potentiation of fluconazole (morpholine series, para-fluorophenyl substitution)
21 | O=C(c1ccsc1)N1CCC(Cc2ccc(COc3cccnc3)cc2)CC1 [MBX-8065] | > 19 µg/mL | >19 µg/mL | complete loss of activity | – | –
22 | O=C(c1ccsc1)N1CCC(c2ccc(COc3ccncc3)cc2)CC1 [MBX-8066] | 1.2 µg/mL | 0.90 µg/mL | – | – | –
23 | O=C(c1ccsc1)N1CCC(Cc2ccc(CNc3ccncc3)cc2)CC1 [MBX-8085] | > 19 µg/mL | >19 µg/mL | – | – | –
24 | O=C(c1ccsc1)N1CCC(Cc2ccc(COc3ccc4scnc4c3)cc2)CC1 [MBX-8086] | > 19 µg/mL | >19 µg/mL | – | – | –
25 | CCc1ccc(C(=O)N2CCC(Cc3ccc(COc4ccncc4)cc3)CC2)cc1 [MBX-8087] | 13 µg/mL | >18 µg/mL | – | – | –
26 | N#Cc1ccc(C(=O)N2CCC(Cc3ccc(COc4ccncc4)cc3)CC2)cc1 [MBX-8088] | 6.5 µg/mL | 14.50 µg/mL | antagonistic effect | – | –
27 | O=C(c1ccc(C(F)(F)F)nc1)N1CCC(Cc2ccc(COc3ccncc3)cc2)CC1 [MBX-8089] | > 22 µg/mL | >20 µg/mL | did not result in appreciable increase in potency | – | –
28 | O=C(N1CCC(Cc2ccc(COc3ccncc3)cc2)CC1)C12CC(C1)C2 [MBX-8090] | 18.8 µg/mL | 13.30 µg/mL | – | – | –
29 | O=C(c1ccccc1Cl)N1CCC(Cc2ccc(COc3ccncc3)cc2)CC1 [MBX-8091] | > 21 µg/mL | >21 µg/mL | – | – | –
30 | O=C(c1cccc(Cl)c1)N1CCC(Cc2ccc(COc3ccncc3)cc2)CC1 [MBX-8092] | 21 µg/mL | >21 µg/mL | – | – | –
31 | COC(=O)c1ccc(C(=O)N2CCC(Cc3ccc(COc4ccncc4)cc3)CC2)cc1 [MBX-8093] | > 22 µg/mL | >20 µg/mL | – | – | –
32 | CC(C)(C)c1ccc(C(=O)N2CCC(Cc3ccc(COc4ccncc4)cc3)CC2)cc1 [MBX-8094] | > 22 µg/mL | >22 µg/mL | – | – | –
33 | O=C(c1ccc(Cl)s1)N1CCC(Cc2ccc(COc3ccncc3)cc2)CC1 [MBX-8095] | 6.7 µg/mL | 3.80 µg/mL | – | more than 4 fold | –
34 | O=C(c1ccc2sccc2c1)N1CCC(Cc2ccc(COc3ccncc3)cc2)CC1 [MBX-8096] | > 22 µg/mL | >22 µg/mL | – | – | –
35 | O=C(c1ccc2scnc2c1)N1CCC(Cc2ccc(COc3ccncc3)cc2)CC1 [MBX-8097] | > 22 µg/mL | >22 µg/mL | – | – | –
36 | O=C(c1cncs1)N1CCC(Cc2ccc(COc3ccncc3)cc2)CC1 [MBX-8098] | 5.5 µg/mL | 2.50 µg/mL | – | more than 4 fold | –
37 | O=C(c1cscn1)N1CCC(Cc2ccc(COc3ccncc3)cc2)CC1 [MBX-8099] | 7.81 µg/mL | 3.10 µg/mL | – | more than 4 fold | –
38 | O=C(O)c1ccc(C(=O)N2CCC(Cc3ccc(COc4ccncc4)cc3)CC2)cc1 [MBX-8138] | > 21 µg/mL | >21 µg/mL | – | – | –
39 | CC(C)(O)c1ccc(C(=O)N2CCC(Cc3ccc(COc4ccncc4)cc3)CC2)cc1 [MBX-8139] | > 22 µg/mL | >22 µg/mL | – | – | –
40 | Cc1cnccc1OCc1ccc(CC2CCN(C(=O)c3ccsc3)CC2)cc1 [MBX-8140] | > 20 µg/mL | >20 µg/mL | complete loss of activity | – | –

Row | Structure (SMILES) | MIC | MIC (ug/mL) (+) Fluc | potency / potentiation of fluconazole (in words) | loss in potentiating the fluconazole | increase in potentiation of fluconazole (morpholine series, para-fluorophenyl substitution)
41 | Cc1cc(OCc2ccc(CC3CCN(C(=O)c4ccsc4)CC3)cc2)ccn1 [MBX-8141] | > 20 µg/mL | >20 µg/mL | complete loss of activity | – | –
42 | COc1cc(OCc2ccc(CC3CCN(C(=O)c4ccsc4)CC3)cc2)ccn1 [MBX-8142] | > 21 µg/mL | >21 µg/mL | complete loss of activity | – | –
43 | Cc1ccc(S(=O)(=O)N2CCC3(CC2)CC(CCOc2ccncc2)CCO3)cn1 (stereo not drawn) [MBX-8143] | 10.8 µg/mL | 3.81 µg/mL | – | – | –
44 | Cc1ccc(S(=O)(=O)N2CCC3(CC2)CC(CCOc2ccncc2)CCO3)s1 (stereo not drawn) [MBX-8144] | 0.77 µg/mL | 0.21 µg/mL | – | – | –
45 | O=S(=O)(c1ccc(F)cc1)N1CCC(Cc2ccc(CN3CCOCC3)cc2)CC1 [MBX-8145] | 0.3 µg/mL | 0.08 µg/mL | – | – | 6 fold
46 | O=S(=O)(c1ccc(Cl)cc1)N1CCC(Cc2ccc(CN3CCOCC3)cc2)CC1 [MBX-8146] | 0.28 µg/mL | 0.14 µg/mL | maintain activity in the morpholine series | – | –
47 | c1cc(OCc2ccc(CC3CCNCC3)cc2)ccn1 [MBX-8147] | > 14 µg/mL | >14 µg/mL | – | – | –
48 | O=C(c1ccsc1)N1CCC(Cc2ccc(COc3ccnc(O)c3)cc2)CC1 [MBX-8185] | > 20 µg/mL | >20 µg/mL | complete loss of activity | – | –
49 | O=S(=O)(c1ccc(C(F)(F)F)nc1)N1CCC(Cc2ccc(CN3CCOCC3)cc2)CC1 [MBX-8186] | 4.8 µg/mL | 1.90 µg/mL | maintain activity in the morpholine series | – | –
50 | O=S(=O)(c1cccc(Cl)c1)N1CCC(Cc2ccc(CN3CCOCC3)cc2)CC1 [MBX-8187] | 4.45 µg/mL | 2.50 µg/mL | – | – | –
51 | O=C(c1ccc(CC2CCN(S(=O)(=O)c3cccc(F)c3)CC2)cc1)N1CCOCC1 [MBX-8188] | > 22 µg/mL | >22 µg/mL | not tolerated | – | –
52 | O=S(=O)(c1cccc(F)c1)N1CCN(Cc2ccc(CN3CCOCC3)cc2)CC1 [MBX-8189] | > 21 µg/mL | >21 µg/mL | – | – | –
53 | CC1CN(Cc2ccc(CC3CCN(S(=O)(=O)c4cccc(F)c4)CC3)cc2)CC(C)O1 (stereo not drawn) [MBX-8190] | > 23 µg/mL | >23 µg/mL | not tolerated | – | –
54 | O=C(c1ccsc1)N1CCC(Cc2ccc(COc3cc[n+]([O-])cc3)cc2)CC1 [MBX-8191] | > 20 µg/mL | >20 µg/mL | complete loss of activity | – | –
55 | O=C(c1ccsc1)N1CCC(Cc2ccc(CO)cc2)CC1 [MBX-8192] | > 15.8 µg/mL | >15.8 µg/mL | – | – | –
56 | O=S(=O)(c1ccc(Cl)s1)N1CCC(Cc2ccc(CN3CCOCC3)cc2)CC1 [MBX-8193] | 0.63 µg/mL | 0.18 µg/mL | – | – | –
57 | O=C(c1ccsc1)N1CCC(Cc2ccc(COc3cnc4scnc4c3)cc2)CC1 [MBX-8219] | 2.81 µg/mL | 2.81 µg/mL | – | – | –
58 | NCc1ccc(OCc2ccc(CC3CCN(C(=O)c4ccsc4)CC3)cc2)cc1 [MBX-8220] | > 21 µg/mL | >21 µg/mL | – | – | –
